Results: the supplement of paper PMC10307832

Legend:
Experiment in all cases: relative viability (nuclei count vs DMSO), 5 days (fraction); higher = more cells survive
[1] = compound: C#Cc1cccc(Nc2ncnc3cc(OC)c(OCCCCCCC(=O)NO)cc23)c1 [CUDC-101]
In short: (§1)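 Five library-drug doses, separated by factors of √10, were pinned into 1536-well plates holding lung cancer cell lines after an overnight stay at 37 °C. Cells were fixed, permeabilised and Hoechst-stained in one step after 5 days without medium change, then imaged at 4×. Viability compares treated-well with vehicle-well nuclei, counted in MetaXpress, as a median across plates. Passing plates had control CV below 25% and at least one doubling.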

[2] = compound: COc1cc2/c(=N/c3ccc(Br)cc3F)nc[nH]c2cc1OCC1CCN(C)CC1 [Vandetanib]
In short: as §1

[3] = compound: COc1cc(N2CCC(N3CCN(C)CC3)CC2)ccc1Nc1ncc(Cl)c(Nc2ccccc2S(=O)(=O)C(C)C)n1 [NVP-TAE684] + CC1(C)CCC(c2ccc(Cl)cc2)=C(CN2CCN(c3ccc(C(=O)NS(=O)(=O)c4ccc(N[C@H](CCN5CCOCC5)CSc5ccccc5)c(S(=O)(=O)C(F)(F)F)c4)cc3)CC2)C1 [Navitoclax] (partner 0.5 µM)
In short: (§2)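 Lung cancer cell lines were seeded in 1536-well plates and dosed by pin tool the next day, with either a single drug or a fixed anchor-drug dose combined with five library-drug doses (not always all listed) spaced in √10 steps. Five days later, one step fixed the cells and stained their nuclei (final 0.05% Triton X-100, 1% formaldehyde, 1 ug/ml Hoechst), and nuclei were counted on 4× images. Relative viability is the nuclei count in treated wells divided by the count in vehicle wells, and each value is the median of duplicate plates.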

[4] = compound: COc1cc2/c(=N/c3ccc(Br)cc3F)nc[nH]c2cc1OCC1CCN(C)CC1 [Vandetanib] + Nc1nc2[nH]cc(CCc3ccc(C(=O)N[C@@H](CCC(=O)O)C(=O)O)cc3)c2c(=O)[nH]1 [Pemetrexed] (partner 0.2 µM)
In short: as §2

Row | Cell Line | relative viability ([1]; 0.01 µM) | relative viability ([1]; 0.03162 µM) | relative viability ([1]; 0.1 µM) | relative viability ([1]; 0.3162 µM) | relative viability ([1]; 1 µM) | relative viability ([2]; 0.02 µM) | relative viability ([2]; 0.06325 µM) | relative viability ([2]; 0.2 µM) | relative viability ([2]; 0.6325 µM) | relative viability ([2]; 2 µM) | relative viability ([3]; first compound 0.2 µM) | relative viability ([3]; first compound 0.6325 µM) | relative viability ([3]; first compound 2 µM) | relative viability ([4]; first compound 0.02 µM) | relative viability ([4]; first compound 0.06325 µM) | relative viability ([4]; first compound 0.2 µM) | relative viability ([4]; first compound 0.6325 µM) | relative viability ([4]; first compound 2 µM)
1 | 201T | 0.984 | 0.97 | 0.964 | 1.03 | 0.829 | 0.951 | 0.951 | 1.01 | 0.934 | 0.941 | 1.21 | 1.19 | 1.12 | 0.345 | 0.34 | 0.328 | 0.338 | 0.306
2 | A549 | 1.04 | 0.967 | 1 | 1.04 | 0.799 | 1 | 0.894 | 0.913 | 0.907 | 0.922 | 1.38 |  | 0.263 |  |  |  |  | 
3 | A-427 | 1.02 | 0.978 | 0.949 | 0.932 | 0.738 | 0.955 | 0.963 | 0.953 | 0.98 | 0.96 | 0.992 |  | 0.874 | 0.907 | 1 | 1.06 | 0.986 | 0.927
4 | ABC-1 | 0.95 | 0.978 | 0.938 | 0.812 | 0.453 | 0.827 | 0.917 | 0.844 | 0.908 | 0.628 |  |  |  |  |  |  |  | 
5 | Calu-6 | 1.03 | 0.998 | 0.979 | 0.993 | 0.857 | 0.958 | 0.946 | 1.02 | 0.988 | 0.95 | 0.776 | 0.694 | 0.269 |  |  |  |  | 
6 | EBC-1 | 1 | 0.89 | 0.975 | 0.785 | 0.582 | 0.93 | 0.959 | 1.07 | 1.09 | 1.03 | 0.323 | 0.247 | 0.245 |  |  |  |  | 
7 | IA-LM | 1.01 | 0.861 | 1.06 | 0.879 | 0.697 | 0.996 | 0.895 | 0.946 | 1.09 | 1.15 | 0.762 | 0.641 | 0.687 |  |  |  |  | 
8 | LCLC-103H | 0.987 | 1.01 | 1.06 | 1.05 | 0.926 | 0.959 | 0.92 | 1.05 | 0.899 | 0.931 |  |  |  | 0.497 | 0.493 | 0.478 | 0.48 | 0.5
9 | NCI-H358 | 1.04 | 0.873 | 0.91 | 0.804 | 0.63 | 0.918 | 0.86 | 0.877 | 0.731 | 0.568 |  |  |  | 0.173 | 0.17 | 0.17 | 0.165 | 0.162
10 | NCI-H522 | 0.879 | 1.09 | 1.01 | 0.979 | 0.743 | 0.915 | 1.03 | 0.91 | 0.933 | 0.97 |  |  |  | 0.941 | 1.02 | 0.957 | 1.25 | 0.999
11 | NCI-H650 | 1.13 | 1.02 | 1.14 | 0.98 | 0.849 | 1.02 | 1 | 0.907 | 1.06 | 0.403 |  |  |  | 0.844 | 0.801 | 0.869 | 0.964 | 0.873
12 | NCI-H661 | 1.01 | 0.907 | 1.02 | 0.945 | 0.637 | 0.943 | 0.989 | 0.967 | 1.05 | 0.901 |  |  |  | 0.882 | 0.938 | 0.98 | 0.907 | 0.907
13 | NCI-H727 | 0.954 | 0.869 | 1.04 | 0.827 | 0.629 | 0.894 | 0.809 | 0.906 | 0.796 | 0.681 | 0.381 | 0.331 | 0.153 |  |  |  |  | 
14 | NCI-H1299 | 1.01 | 0.998 | 1.02 | 1.01 | 0.919 | 1.01 | 0.963 | 1.05 | 1.01 | 1.02 | 1.08 | 1.05 | 1.05 |  |  |  |  | 
15 | NCI-H1563 | 0.968 | 0.869 | 1.06 | 0.917 | 0.893 | 0.973 | 1.07 | 0.989 | 1.03 | 0.94 |  |  |  | 0.75 | 0.732 | 0.755 | 0.678 | 0.755
16 | NCI-H1623 | 1.11 | 0.858 | 0.82 | 0.813 | 0.552 | 0.891 | 0.905 | 0.949 | 0.938 | 0.825 |  |  |  |  |  |  |  | 
17 | NCI-H1648 | 1.15 | 0.59 | 0.758 | 0.741 | 0.376 | 0.862 | 0.824 | 0.745 | 0.915 | 0.561 |  |  |  | 0.568 | 0.691 | 0.652 | 0.995 | 0.714
18 | NCI-H1703 | 0.997 | 0.743 | 1.1 | 1.19 | 0.904 | 1.02 | 0.673 | 0.963 | 0.775 | 0.537 | 1.17 | 1.04 | 0.215 |  |  |  |  | 
19 | NCI-H2342 | 1.06 | 0.931 | 0.973 | 0.996 | 0.923 | 1 | 0.964 | 0.953 | 0.95 | 0.949 |  |  |  | 0.728 | 0.832 | 0.77 | 0.801 | 0.668
20 | SW 900 | 0.927 | 0.881 | 0.803 | 0.878 | 0.624 | 0.898 | 0.887 | 0.65 | 0.93 | 0.775 |  |  |  | 0.472 | 0.464 |  | 0.483 | 0.464
